Source: the supplement of paper PMC12463676, “Small-molecule dissolution of stress granules by redox modulation benefits ALS models” (Nature Chemical Biology, 2025)

Experiments:
lipoamide = compound: NC(=O)CCCCC1CCSS1 [lipoamide]; test: thermal stability z-score vs DMSO; higher = more thermally stabilized by treatment; conditions: HeLa, lipoamide concentration 100 µM
Procedure: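 Cellular thermal proteome profiling in HeLa cells. Cells were treated with 100 µM lipoamide for 1 h, with or without 1 mM arsenate for a further 1 h, then heated to ten temperatures (37-66.3 °C), and soluble protein was quantified by TMT mass spectrometry relative to 0.1% DMSO controls. The thermal stability score (sum of log2 fold changes minus the abundance score) was transformed to a z-score; mean of n = 3 experiments.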

potassium arsenate = compound: O=[As]([O-])(O)O.[K+] [potassium arsenate]; test: as above; conditions: HeLa; arsenate concentration 1 mM
Procedure: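 Cellular thermal proteome profiling in HeLa cells treated with 1 mM arsenate for 1 h (DMSO pretreatment), heated to ten temperatures (37-66.3 °C). Soluble protein was quantified by TMT mass spectrometry relative to DMSO controls; the thermal stability score was transformed to a z-score; mean of n = 3 experiments.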

[1] = arsenate co-treatment: 1 mM arsenate 1 h
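Further: each temperature applied for 3 min, abundance score taken as mean log2 fold change at the two lowest temperatures, z-score obtained by mean subtraction and division by SD.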

Chain of UniProt Q96NT0 (Q96NT0 whole entry): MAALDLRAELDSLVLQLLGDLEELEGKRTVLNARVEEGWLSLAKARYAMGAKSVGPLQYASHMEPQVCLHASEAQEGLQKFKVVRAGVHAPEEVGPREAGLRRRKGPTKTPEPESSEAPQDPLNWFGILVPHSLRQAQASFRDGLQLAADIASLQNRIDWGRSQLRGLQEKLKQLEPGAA
Chain of UniProt Q14790 (Q14790 whole entry): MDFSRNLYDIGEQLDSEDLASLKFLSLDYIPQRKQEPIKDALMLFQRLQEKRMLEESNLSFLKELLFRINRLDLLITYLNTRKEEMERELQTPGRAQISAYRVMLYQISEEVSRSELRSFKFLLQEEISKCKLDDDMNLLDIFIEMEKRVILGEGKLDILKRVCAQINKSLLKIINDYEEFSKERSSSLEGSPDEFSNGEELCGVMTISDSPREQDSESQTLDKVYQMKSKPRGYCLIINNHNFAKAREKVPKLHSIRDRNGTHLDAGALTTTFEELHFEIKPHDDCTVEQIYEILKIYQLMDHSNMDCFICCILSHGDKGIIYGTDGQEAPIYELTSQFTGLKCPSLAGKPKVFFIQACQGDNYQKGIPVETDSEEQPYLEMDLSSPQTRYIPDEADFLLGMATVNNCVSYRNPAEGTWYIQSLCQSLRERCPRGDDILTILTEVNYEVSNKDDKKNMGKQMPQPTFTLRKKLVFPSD
Chain of UniProt Q8N3U4 (Q8N3U4 whole entry): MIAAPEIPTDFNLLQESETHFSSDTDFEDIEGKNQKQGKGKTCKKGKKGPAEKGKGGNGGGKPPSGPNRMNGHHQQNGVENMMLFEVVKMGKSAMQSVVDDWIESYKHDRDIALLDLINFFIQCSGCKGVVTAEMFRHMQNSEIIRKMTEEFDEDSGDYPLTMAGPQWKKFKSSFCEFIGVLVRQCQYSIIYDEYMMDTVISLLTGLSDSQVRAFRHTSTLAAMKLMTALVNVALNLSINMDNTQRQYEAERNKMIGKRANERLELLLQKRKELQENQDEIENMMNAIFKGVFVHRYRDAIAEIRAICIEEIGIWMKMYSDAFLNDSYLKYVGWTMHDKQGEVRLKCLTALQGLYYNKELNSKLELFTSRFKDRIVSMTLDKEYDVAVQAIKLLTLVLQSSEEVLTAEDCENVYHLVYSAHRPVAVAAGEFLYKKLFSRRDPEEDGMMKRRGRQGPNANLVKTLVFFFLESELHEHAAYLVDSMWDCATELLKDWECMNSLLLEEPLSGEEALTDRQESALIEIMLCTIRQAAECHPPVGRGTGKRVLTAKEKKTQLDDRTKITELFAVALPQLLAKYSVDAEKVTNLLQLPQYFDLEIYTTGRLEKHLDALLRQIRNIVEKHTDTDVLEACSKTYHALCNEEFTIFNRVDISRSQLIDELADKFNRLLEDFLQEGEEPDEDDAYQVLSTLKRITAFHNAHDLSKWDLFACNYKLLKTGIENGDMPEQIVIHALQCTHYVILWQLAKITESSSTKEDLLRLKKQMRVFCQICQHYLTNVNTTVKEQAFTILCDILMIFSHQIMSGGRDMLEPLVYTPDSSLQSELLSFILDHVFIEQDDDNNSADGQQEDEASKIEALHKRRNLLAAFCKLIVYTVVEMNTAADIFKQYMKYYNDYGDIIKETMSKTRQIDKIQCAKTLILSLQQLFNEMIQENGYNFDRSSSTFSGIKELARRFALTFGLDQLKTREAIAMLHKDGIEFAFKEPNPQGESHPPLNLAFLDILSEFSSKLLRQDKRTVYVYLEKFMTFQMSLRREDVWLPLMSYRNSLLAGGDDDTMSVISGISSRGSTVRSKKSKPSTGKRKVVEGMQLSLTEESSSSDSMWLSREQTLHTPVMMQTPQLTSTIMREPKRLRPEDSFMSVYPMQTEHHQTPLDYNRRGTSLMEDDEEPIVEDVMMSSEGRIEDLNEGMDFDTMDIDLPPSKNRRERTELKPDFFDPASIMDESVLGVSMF
Chain of UniProt A6NKD9 (A6NKD9 whole entry): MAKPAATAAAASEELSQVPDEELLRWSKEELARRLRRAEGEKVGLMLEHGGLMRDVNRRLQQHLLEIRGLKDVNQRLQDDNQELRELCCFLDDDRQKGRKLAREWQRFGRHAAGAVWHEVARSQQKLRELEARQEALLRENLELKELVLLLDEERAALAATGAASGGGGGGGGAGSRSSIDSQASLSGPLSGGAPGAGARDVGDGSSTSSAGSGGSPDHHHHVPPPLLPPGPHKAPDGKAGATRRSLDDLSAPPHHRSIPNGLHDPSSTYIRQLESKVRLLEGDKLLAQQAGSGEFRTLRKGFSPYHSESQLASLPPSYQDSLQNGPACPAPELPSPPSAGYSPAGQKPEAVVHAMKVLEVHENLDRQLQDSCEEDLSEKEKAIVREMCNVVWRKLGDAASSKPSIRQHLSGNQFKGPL
Chain of UniProt Q9BXK5 (Q9BXK5 whole entry): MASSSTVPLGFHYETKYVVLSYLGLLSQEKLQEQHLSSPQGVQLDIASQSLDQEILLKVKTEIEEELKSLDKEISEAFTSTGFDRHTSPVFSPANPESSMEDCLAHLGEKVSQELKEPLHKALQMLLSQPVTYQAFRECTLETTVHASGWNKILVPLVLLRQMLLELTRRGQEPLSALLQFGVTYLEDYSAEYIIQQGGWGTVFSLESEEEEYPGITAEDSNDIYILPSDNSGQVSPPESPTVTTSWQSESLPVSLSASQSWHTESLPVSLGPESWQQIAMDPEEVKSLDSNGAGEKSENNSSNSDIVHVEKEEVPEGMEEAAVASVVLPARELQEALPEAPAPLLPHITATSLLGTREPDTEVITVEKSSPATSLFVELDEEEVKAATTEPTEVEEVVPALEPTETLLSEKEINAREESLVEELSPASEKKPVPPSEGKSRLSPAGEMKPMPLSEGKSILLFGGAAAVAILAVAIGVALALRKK
Chain of UniProt Q9NX62 (Q9NX62 whole entry): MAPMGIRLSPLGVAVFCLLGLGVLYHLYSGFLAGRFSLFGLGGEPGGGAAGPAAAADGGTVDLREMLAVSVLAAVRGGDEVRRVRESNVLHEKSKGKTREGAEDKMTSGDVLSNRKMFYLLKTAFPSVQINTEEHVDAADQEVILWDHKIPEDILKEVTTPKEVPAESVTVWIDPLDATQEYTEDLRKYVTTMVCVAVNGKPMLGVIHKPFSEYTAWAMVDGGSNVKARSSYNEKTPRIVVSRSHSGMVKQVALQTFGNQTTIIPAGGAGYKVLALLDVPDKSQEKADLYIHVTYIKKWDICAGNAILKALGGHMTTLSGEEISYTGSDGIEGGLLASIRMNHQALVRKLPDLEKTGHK
Chain of UniProt O95571 (O95571 whole entry): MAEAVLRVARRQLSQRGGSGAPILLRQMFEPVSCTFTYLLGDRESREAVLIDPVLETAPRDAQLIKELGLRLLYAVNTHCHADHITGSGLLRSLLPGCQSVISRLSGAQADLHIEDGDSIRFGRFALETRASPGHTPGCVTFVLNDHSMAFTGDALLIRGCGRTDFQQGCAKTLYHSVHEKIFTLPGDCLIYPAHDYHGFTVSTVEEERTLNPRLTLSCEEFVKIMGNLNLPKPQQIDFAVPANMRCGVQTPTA
Chain of UniProt P20810 (P20810 whole entry): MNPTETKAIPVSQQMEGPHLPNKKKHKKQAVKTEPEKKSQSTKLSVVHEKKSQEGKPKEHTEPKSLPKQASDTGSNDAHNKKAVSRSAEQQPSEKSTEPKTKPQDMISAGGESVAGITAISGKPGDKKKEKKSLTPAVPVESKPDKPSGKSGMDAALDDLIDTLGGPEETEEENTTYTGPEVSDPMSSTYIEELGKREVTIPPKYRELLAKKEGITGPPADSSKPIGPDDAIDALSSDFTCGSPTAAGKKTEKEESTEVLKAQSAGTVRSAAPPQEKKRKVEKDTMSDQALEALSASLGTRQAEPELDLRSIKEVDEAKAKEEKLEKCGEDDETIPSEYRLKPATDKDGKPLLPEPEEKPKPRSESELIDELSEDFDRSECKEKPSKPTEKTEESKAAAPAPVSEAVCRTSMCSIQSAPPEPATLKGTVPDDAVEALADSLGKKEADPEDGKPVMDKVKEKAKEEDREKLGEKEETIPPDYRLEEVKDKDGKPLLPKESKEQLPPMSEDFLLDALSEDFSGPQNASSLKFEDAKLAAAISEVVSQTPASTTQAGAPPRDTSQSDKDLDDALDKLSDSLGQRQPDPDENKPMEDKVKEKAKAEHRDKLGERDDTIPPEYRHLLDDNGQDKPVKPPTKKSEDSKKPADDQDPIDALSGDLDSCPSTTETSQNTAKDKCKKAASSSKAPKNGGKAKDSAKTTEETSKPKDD
Chain of UniProt O15315 (O15315 whole entry): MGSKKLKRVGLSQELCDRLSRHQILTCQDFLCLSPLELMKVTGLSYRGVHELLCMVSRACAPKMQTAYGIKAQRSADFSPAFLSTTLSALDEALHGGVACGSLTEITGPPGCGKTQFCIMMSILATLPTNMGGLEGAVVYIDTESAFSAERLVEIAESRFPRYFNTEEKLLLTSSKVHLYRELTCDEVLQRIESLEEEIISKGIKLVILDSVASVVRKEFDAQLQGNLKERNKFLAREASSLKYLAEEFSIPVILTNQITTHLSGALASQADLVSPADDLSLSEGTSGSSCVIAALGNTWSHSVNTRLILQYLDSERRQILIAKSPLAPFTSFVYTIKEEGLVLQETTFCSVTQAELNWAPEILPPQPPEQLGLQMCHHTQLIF
Chain of UniProt P83876 (P83876 whole entry): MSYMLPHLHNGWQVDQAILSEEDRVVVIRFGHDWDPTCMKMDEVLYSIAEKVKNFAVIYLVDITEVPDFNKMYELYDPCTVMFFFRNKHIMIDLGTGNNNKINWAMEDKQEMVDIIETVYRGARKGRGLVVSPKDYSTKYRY
Chain of UniProt P52758 (P52758 whole entry): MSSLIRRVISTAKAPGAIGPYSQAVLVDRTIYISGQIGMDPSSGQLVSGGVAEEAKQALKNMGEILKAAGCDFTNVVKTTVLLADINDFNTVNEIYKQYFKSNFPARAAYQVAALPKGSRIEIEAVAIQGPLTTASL
Chain of UniProt Q9Y3B4 (Q9Y3B4 whole entry): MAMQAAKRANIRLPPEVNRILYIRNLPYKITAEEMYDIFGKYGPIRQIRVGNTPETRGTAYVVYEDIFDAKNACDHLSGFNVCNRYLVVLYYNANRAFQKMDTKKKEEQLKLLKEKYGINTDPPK

In the case of RABEP1 (UniProt Q15276), the thermal stability z-score (lipoamide; [1]) is reported as -0.36, the thermal stability z-score (lipoamide; arsenate co-treatment: none) is reported as -0.194 and the thermal stability z-score (potassium arsenate) is reported as 0.182.
Work on GPALPP1 (UniProt Q8IXQ4) yielded a thermal stability z-score (lipoamide; [1]) of -0.0123, a thermal stability z-score (lipoamide; arsenate co-treatment: none) of 0.162 and a thermal stability z-score (potassium arsenate) of -0.865.
ACTR8 (UniProt Q9H981) was tested, and the thermal stability z-score (lipoamide; [1]) was -0.154, the thermal stability z-score (lipoamide; arsenate co-treatment: none) was -0.0898 and the thermal stability z-score (potassium arsenate) was -0.347.
Target UBE2C (UniProt O00762) has a thermal stability z-score (lipoamide; [1]) of 0.263, a thermal stability z-score (lipoamide; arsenate co-treatment: none) of -0.139 and a thermal stability z-score (potassium arsenate) of 0.4.
For UBE2I (UniProt P63279), the thermal stability z-score (lipoamide; [1]) was -0.334, the thermal stability z-score (lipoamide; arsenate co-treatment: none) was 0.315 and the thermal stability z-score (potassium arsenate) was 0.137.
ACOT7 (UniProt O00154) gave a thermal stability z-score (lipoamide; [1]) of 0.237, a thermal stability z-score (lipoamide; arsenate co-treatment: none) of 0.304 and a thermal stability z-score (potassium arsenate) of -0.151.
For ETHE1 (UniProt O95571), the thermal stability z-score (lipoamide; [1]) was 0.217, the thermal stability z-score (lipoamide; arsenate co-treatment: none) was -0.107 and the thermal stability z-score (potassium arsenate) was 0.0234.
RAD51B (UniProt O15315) showed a thermal stability z-score (lipoamide; [1]) of 0.231, a thermal stability z-score (lipoamide; arsenate co-treatment: none) of 0.428 and a thermal stability z-score (potassium arsenate) of 0.578.
IMPAD1 (UniProt Q9NX62) showed a thermal stability z-score (lipoamide; [1]) of -0.426, a thermal stability z-score (lipoamide; arsenate co-treatment: none) of -0.356 and a thermal stability z-score (potassium arsenate) of -0.352.
CBR4 (UniProt Q8N4T8) was tested, and the thermal stability z-score (lipoamide; [1]) was -0.276, the thermal stability z-score (lipoamide; arsenate co-treatment: none) was 0.0911 and the thermal stability z-score (potassium arsenate) was 0.168.
HOOK2 (UniProt Q96ED9) gave a thermal stability z-score (lipoamide; [1]) of 0.0635, a thermal stability z-score (lipoamide; arsenate co-treatment: none) of -0.0859 and a thermal stability z-score (potassium arsenate) of -0.0139.
EXOC3 (UniProt O60645) was tested, and the thermal stability z-score (lipoamide; [1]) was -0.653, the thermal stability z-score (lipoamide; arsenate co-treatment: none) was -0.0663 and the thermal stability z-score (potassium arsenate) was 0.149.
In the case of ANXA3 (UniProt P12429), the thermal stability z-score (lipoamide; [1]) is reported as 0.902, the thermal stability z-score (lipoamide; arsenate co-treatment: none) is reported as 0.504 and the thermal stability z-score (potassium arsenate) is reported as 0.227.
Work on CD99 (UniProt P14209) yielded a thermal stability z-score (lipoamide; [1]) of 0.901, a thermal stability z-score (lipoamide; arsenate co-treatment: none) of 0.721 and a thermal stability z-score (potassium arsenate) of 0.168.
ACTN4 (UniProt O43707) gave a thermal stability z-score (lipoamide; [1]) of 0.262, a thermal stability z-score (lipoamide; arsenate co-treatment: none) of 0.364 and a thermal stability z-score (potassium arsenate) of 0.498.
In the case of CCDC174 (UniProt Q6PII3), the thermal stability z-score (lipoamide; [1]) is reported as -0.407, the thermal stability z-score (lipoamide; arsenate co-treatment: none) is reported as -0.734 and the thermal stability z-score (potassium arsenate) is reported as -0.984.
WDR18 (UniProt Q9BV38) was tested, and the thermal stability z-score (lipoamide; [1]) was 1.38, the thermal stability z-score (lipoamide; arsenate co-treatment: none) was 0.361 and the thermal stability z-score (potassium arsenate) was 0.122.
Work on BCL2L13 (UniProt Q9BXK5) yielded a thermal stability z-score (lipoamide; [1]) of 0.605, a thermal stability z-score (lipoamide; arsenate co-treatment: none) of 0.206 and a thermal stability z-score (potassium arsenate) of 0.655.
For SF3B6 (UniProt Q9Y3B4), the thermal stability z-score (lipoamide; [1]) was -0.787, the thermal stability z-score (lipoamide; arsenate co-treatment: none) was -0.165 and the thermal stability z-score (potassium arsenate) was -0.667.
For ATG9A (UniProt Q7Z3C6), the thermal stability z-score (lipoamide; [1]) was -0.389, the thermal stability z-score (lipoamide; arsenate co-treatment: none) was -0.339 and the thermal stability z-score (potassium arsenate) was 0.359.
Target HRSP12 (UniProt P52758) has a thermal stability z-score (lipoamide; [1]) of 0.703, a thermal stability z-score (lipoamide; arsenate co-treatment: none) of 0.341 and a thermal stability z-score (potassium arsenate) of 0.206.
In the case of PPP2R4 (UniProt Q15257), the thermal stability z-score (lipoamide; [1]) is reported as 0.108, the thermal stability z-score (lipoamide; arsenate co-treatment: none) is reported as 0.233 and the thermal stability z-score (potassium arsenate) is reported as -0.0643.
For TXNL4A (UniProt P83876), the thermal stability z-score (lipoamide; [1]) was 0.343, the thermal stability z-score (lipoamide; arsenate co-treatment: none) was -0.0818 and the thermal stability z-score (potassium arsenate) was -0.461.
Target CAST (UniProt P20810) has a thermal stability z-score (lipoamide; [1]) of 0.525, a thermal stability z-score (lipoamide; arsenate co-treatment: none) of 0.428 and a thermal stability z-score (potassium arsenate) of 0.122.
With STAG2 (UniProt Q8N3U4) the thermal stability z-score (lipoamide; [1]) was 0.281, the thermal stability z-score (lipoamide; arsenate co-treatment: none) was 0.393 and the thermal stability z-score (potassium arsenate) was -0.0489.
With NCEH1 (UniProt Q6PIU2) the thermal stability z-score (lipoamide; [1]) was -0.5, the thermal stability z-score (lipoamide; arsenate co-treatment: none) was -0.83 and the thermal stability z-score (potassium arsenate) was -0.34.
With WDR89 (UniProt Q96FK6) the thermal stability z-score (lipoamide; [1]) was 2.45, the thermal stability z-score (lipoamide; arsenate co-treatment: none) was 1.2 and the thermal stability z-score (potassium arsenate) was -12.3.
For NEDD4L (UniProt Q96PU5), the thermal stability z-score (lipoamide; [1]) was -0.314, the thermal stability z-score (lipoamide; arsenate co-treatment: none) was -0.354 and the thermal stability z-score (potassium arsenate) was 0.0653.
Target CCDC115 (UniProt Q96NT0) has a thermal stability z-score (lipoamide; [1]) of 0.112, a thermal stability z-score (lipoamide; arsenate co-treatment: none) of 0.611 and a thermal stability z-score (potassium arsenate) of -0.392.
For PPOX (UniProt P50336), the thermal stability z-score (lipoamide; [1]) was 0.085, the thermal stability z-score (lipoamide; arsenate co-treatment: none) was 0.352 and the thermal stability z-score (potassium arsenate) was 0.154.
In the case of FOCAD (UniProt Q5VW36), the thermal stability z-score (lipoamide; [1]) is reported as 0.151, the thermal stability z-score (lipoamide; arsenate co-treatment: none) is reported as 0.411 and the thermal stability z-score (potassium arsenate) is reported as -0.279.
In the case of FBN1 (UniProt P35555), the thermal stability z-score (lipoamide; [1]) is reported as -2.81, the thermal stability z-score (lipoamide; arsenate co-treatment: none) is reported as -2.71 and the thermal stability z-score (potassium arsenate) is reported as 0.276.
For BAG5 (UniProt Q9UL15), the thermal stability z-score (lipoamide; [1]) was 0.228, the thermal stability z-score (lipoamide; arsenate co-treatment: none) was 0.437 and the thermal stability z-score (potassium arsenate) was -0.198.
For CASP8 (UniProt Q14790), the thermal stability z-score (lipoamide; [1]) was -2.33, the thermal stability z-score (lipoamide; arsenate co-treatment: none) was -0.106 and the thermal stability z-score (potassium arsenate) was -0.648.
Work on C5ORF22 (UniProt Q49AR2) yielded a thermal stability z-score (lipoamide; [1]) of -0.259, a thermal stability z-score (lipoamide; arsenate co-treatment: none) of 0.324 and a thermal stability z-score (potassium arsenate) of 1.13.
Work on CCDC85C (UniProt A6NKD9) yielded a thermal stability z-score (lipoamide; [1]) of 0.0231, a thermal stability z-score (lipoamide; arsenate co-treatment: none) of 0.186 and a thermal stability z-score (potassium arsenate) of -0.0463.
IGF2R (UniProt P11717) showed a thermal stability z-score (lipoamide; [1]) of -1.48, a thermal stability z-score (lipoamide; arsenate co-treatment: none) of -0.964 and a thermal stability z-score (potassium arsenate) of -0.374.
Target SRRM2 (UniProt Q9UQ35) has a thermal stability z-score (lipoamide; [1]) of 2.25, a thermal stability z-score (lipoamide; arsenate co-treatment: none) of 1.42 and a thermal stability z-score (potassium arsenate) of -0.494.
For BAZ1B (UniProt Q9UIG0), the thermal stability z-score (lipoamide; [1]) was -0.152, the thermal stability z-score (lipoamide; arsenate co-treatment: none) was -0.073 and the thermal stability z-score (potassium arsenate) was 0.21.
In the case of COQ3 (UniProt Q9NZJ6), the thermal stability z-score (lipoamide; [1]) is reported as 0.083, the thermal stability z-score (lipoamide; arsenate co-treatment: none) is reported as 0.759 and the thermal stability z-score (potassium arsenate) is reported as 1.9.
For WDR11 (UniProt Q9BZH6), the thermal stability z-score (lipoamide; [1]) was -0.207, the thermal stability z-score (lipoamide; arsenate co-treatment: none) was -0.147 and the thermal stability z-score (potassium arsenate) was -0.267.
Target TNKS1BP1 (UniProt Q9C0C2) has a thermal stability z-score (lipoamide; [1]) of -0.0132, a thermal stability z-score (lipoamide; arsenate co-treatment: none) of 0.146 and a thermal stability z-score (potassium arsenate) of 3.12.
PHGDH (UniProt O43175) was tested, and the thermal stability z-score (lipoamide; [1]) was 1.08, the thermal stability z-score (lipoamide; arsenate co-treatment: none) was 0.761 and the thermal stability z-score (potassium arsenate) was -2.42.
For OSBPL1A (UniProt Q9BXW6), the thermal stability z-score (lipoamide; [1]) was -1.13, the thermal stability z-score (lipoamide; arsenate co-treatment: none) was 0.611 and the thermal stability z-score (potassium arsenate) was 0.355.
CPSF6 (UniProt Q16630) was tested, and the thermal stability z-score (lipoamide; [1]) was 0.848, the thermal stability z-score (lipoamide; arsenate co-treatment: none) was 1.21 and the thermal stability z-score (potassium arsenate) was 0.452.
With CCDC58 (UniProt Q4VC31) the thermal stability z-score (lipoamide; [1]) was 0.552, the thermal stability z-score (lipoamide; arsenate co-treatment: none) was 0.284 and the thermal stability z-score (potassium arsenate) was 0.303.
With FAM120B (UniProt Q96EK7) the thermal stability z-score (lipoamide; [1]) was 0.0177, the thermal stability z-score (lipoamide; arsenate co-treatment: none) was -0.0542 and the thermal stability z-score (potassium arsenate) was -0.081.
Target HECTD1 (UniProt Q9ULT8) has a thermal stability z-score (lipoamide; [1]) of -0.353, a thermal stability z-score (lipoamide; arsenate co-treatment: none) of -0.164 and a thermal stability z-score (potassium arsenate) of 0.641.
In the case of SETD1A (UniProt O15047), the thermal stability z-score (lipoamide; [1]) is reported as 0.233, the thermal stability z-score (lipoamide; arsenate co-treatment: none) is reported as -0.516 and the thermal stability z-score (potassium arsenate) is reported as -0.413.
RASAL2 (UniProt Q9UJF2) was tested, and the thermal stability z-score (lipoamide; [1]) was -0.126, the thermal stability z-score (lipoamide; arsenate co-treatment: none) was 0.0905 and the thermal stability z-score (potassium arsenate) was -0.227.
FAHD1 (UniProt Q6P587) showed a thermal stability z-score (lipoamide; [1]) of 0.565, a thermal stability z-score (lipoamide; arsenate co-treatment: none) of 0.339 and a thermal stability z-score (potassium arsenate) of 0.21.
For SPATA5 (UniProt Q8NB90), the thermal stability z-score (lipoamide; [1]) was 0.389, the thermal stability z-score (lipoamide; arsenate co-treatment: none) was 0.148 and the thermal stability z-score (potassium arsenate) was -0.0295.
SNRPB|SNRPN was tested, and the thermal stability z-score (lipoamide; [1]) was 0.508, the thermal stability z-score (lipoamide; arsenate co-treatment: none) was 0.162 and the thermal stability z-score (potassium arsenate) was 0.578.
With RRP12 (UniProt Q5JTH9) the thermal stability z-score (lipoamide; [1]) was 0.612, the thermal stability z-score (lipoamide; arsenate co-treatment: none) was 0.819 and the thermal stability z-score (potassium arsenate) was 0.0662.
APRT (UniProt P07741) showed a thermal stability z-score (lipoamide; [1]) of 0.387, a thermal stability z-score (lipoamide; arsenate co-treatment: none) of 0.419 and a thermal stability z-score (potassium arsenate) of 0.345.
